The nature of the series: recombinant barcode read abundance after kanamycin selection (control-corrected) (log10(CPM+1)); higher = more efficient recombination; sequences stand for … in AGTGCAGAGAAAATCGGCCAGTTTTCTCTGCCTGCAGTCCGCATGCCGT…AGATTTATGCAGCGGACTGCCTTTCTCCCAAAGTGATAAACCGGACAGTATCATGGACCGGTTTTCCCGGTAATCCGTATTTGCAAGGTTGGTTTCACT; site = the 11-nt target. The procedure, abridged:
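Two replicates per condition were plated: chloramphenicol/ampicillin LB agar for the control, and chloramphenicol/ampicillin/kanamycin with 0.1 mM IPTG for selection. The pooled E. coli screen behind them paired targets with IS621 bridge RNA target-binding loops. Recombination efficiency is expressed from averaged, control-corrected barcode counts per million at recombinant junctions, as log10(CPM+1).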
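Also: IS621 recombinase and bridge RNA in Escherichia coli cells.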

With “TCGAGTGCTTGGGTTCTAACCTGTTGCAG (site TCGAGTGCTCT)”, the “recombinant barcode read abundance (log10)” value is 0.263.

Consider “TCGATCCCTTGGGTTCTAACCTGTTGCCT (site TCAATCCCTAG)”, for which the “recombinant barcode read abundance (log10)” value is 0.194.

For the sequence “TCGATCCCTTGGGTTCTAACCTGTTGCCT (site TCCATCCCTAG)”, the “recombinant barcode read abundance (log10)” value was found to be 0.144.

Consider “TCGATCCCTTGGGTTCTAACCTGTTGCCT (site TCGATCCCTAG)”, for which the “recombinant barcode read abundance (log10)” value is 0.577.

Consider “TCGATCCCTTGGGTTCTAACCTGTTGCCT (site TCTATCCCTAG)”, for which the “recombinant barcode read abundance (log10)” value was found to be 0.0661.

Turning to “TCGATTACTTGGGTTCTAACCTGTTGCCT (site TCGATCACTAG)”, the “recombinant barcode read abundance (log10)” value turned out to be 0.269.

Consider “TCGATTACTTGGGTTCTAACCTGTTGCCT (site TCGATTACTAG)”, for which the “recombinant barcode read abundance (log10)” value was 0.123.

For the sequence “TCGCACACTTGGGTTCTAACCTGTTGCCT (site ACGCACACTAG)”, the “recombinant barcode read abundance (log10)” value was 0.276.

Take “TCGCACACTTGGGTTCTAACCTGTTGCCT (site CCGCACACTAG)”: the “recombinant barcode read abundance (log10)” value is 0.324.

Turning to “TCGCACACTTGGGTTCTAACCTGTTGCCT (site GCGCACACTAG)”, the “recombinant barcode read abundance (log10)” value came to 0.814.

For “TCGCACACTTGGGTTCTAACCTGTTGCCT (site TCGCACACTAG)”, the “recombinant barcode read abundance (log10)” value was found to be 0.622.

For “TCGCAGACTTGGGTTCTAACCTGTTGCAC (site TCGCAGACTGT)”, the “recombinant barcode read abundance (log10)” value came to 0.0284.

For “TCGCAGACTTGGGTTCTAACCTGTTGCAC (site TGGCCGACTGT)”, the “recombinant barcode read abundance (log10)” value worked out at 0.119.

“TCGCCTACTTGGGTTCTAACCTGTTGCCG (site TCCCCGACTCG)”: the “recombinant barcode read abundance (log10)” value stood at 0.255.

“TCGCCTACTTGGGTTCTAACCTGTTGCCG (site TCGCCTACTCG)”: the “recombinant barcode read abundance (log10)” value was determined as 0.19.

Regarding “TCGCGCTCTTGGGTTCTAACCTGTTGCTT (site TCGAACTCTAA)”, the “recombinant barcode read abundance (log10)” value came to 0.233.

Consider “TCGCGCTCTTGGGTTCTAACCTGTTGCTT (site TCGCGCTCTAA)”, for which the “recombinant barcode read abundance (log10)” value came out at 0.419.

Turning to “TCGCTACCTTGGGTTCTAACCTGTTGCCT (site TCGCTACCTAG)”, the “recombinant barcode read abundance (log10)” value was 0.109.

On to “TCGCTACCTTGGGTTCTAACCTGTTGCCT (site TGACTACCTAG)”, for which the “recombinant barcode read abundance (log10)” value is 0.157.

For the sequence “TCGGAATCTTGGGTTCTAACCTGTTGCCT (site GCGGAATCTAG)”, the “recombinant barcode read abundance (log10)” value turned out to be 0.

In the case of “TCGGAATCTTGGGTTCTAACCTGTTGCCT (site TCGGAATCTAG)”, the “recombinant barcode read abundance (log10)” value was found to be 0.543.

“TCGGAGTCTTGGGTTCTAACCTGTTGCTT (site TCGGAGTCTAA)”: the “recombinant barcode read abundance (log10)” value is 1.87.

In the case of “TCGGAGTCTTGGGTTCTAACCTGTTGCTT (site TCGGAGTCTAC)”, the “recombinant barcode read abundance (log10)” value turned out to be 0.501.

For “TCGGAGTCTTGGGTTCTAACCTGTTGCTT (site TCGGAGTCTAG)”, the “recombinant barcode read abundance (log10)” value came to 1.17.

For “TCGGAGTCTTGGGTTCTAACCTGTTGCTT (site TCGGAGTCTAT)”, the “recombinant barcode read abundance (log10)” value was found to be 1.39.

On to “TCGGATGCTTGGGTTCTAACCTGTTGCAT (site GTTTCGACTTA)”, for which the “recombinant barcode read abundance (log10)” value was 0.272.

In the case of “TCGGATGCTTGGGTTCTAACCTGTTGCAT (site TCGGATGCTAT)”, the “recombinant barcode read abundance (log10)” value was determined as 0.417.

On to “TCGGCTCCTTGGGTTCTAACCTGTTGCCT (site TCGGCTCCTAG)”, for which the “recombinant barcode read abundance (log10)” value is 0.712.

In the case of “TCGGCTCCTTGGGTTCTAACCTGTTGCCT (site TTGGCGCCTAG)”, the “recombinant barcode read abundance (log10)” value was found to be 0.149.

Regarding “TCGGGGTCTTGGGTTCTAACCTGTTGCCT (site ACGGGGTCTAG)”, the “recombinant barcode read abundance (log10)” value worked out at 1.23.

As for “TCGGGGTCTTGGGTTCTAACCTGTTGCCT (site CCGGGGTCTAG)”, the “recombinant barcode read abundance (log10)” value came to 0.543.

With “TCGGGGTCTTGGGTTCTAACCTGTTGCCT (site GCGGGGTCTAG)”, the “recombinant barcode read abundance (log10)” value was found to be 0.0776.

Turning to “TCGGGGTCTTGGGTTCTAACCTGTTGCCT (site TCGGGGTCTAG)”, the “recombinant barcode read abundance (log10)” value worked out at 1.27.

As for “TCGGTTCCTTGGGTTCTAACCTGTTGCCT (site TAGGTTCCTAG)”, the “recombinant barcode read abundance (log10)” value amounted to 0.439.

For the sequence “TCGGTTCCTTGGGTTCTAACCTGTTGCCT (site TCGGTTCCTAG)”, the “recombinant barcode read abundance (log10)” value was 0.811.

Regarding “TCGTAGACTTGGGTTCTAACCTGTTGCTA (site GGTCGCCCTAC)”, the “recombinant barcode read abundance (log10)” value came out at 0.16.

For “TCGTAGACTTGGGTTCTAACCTGTTGCTA (site TCGTAGACTTA)”, the “recombinant barcode read abundance (log10)” value came to 0.215.

In the case of “TCGTCACCTTGGGTTCTAACCTGTTGCCT (site ACGTCACCTAG)”, the “recombinant barcode read abundance (log10)” value was found to be 0.

Regarding “TCGTCACCTTGGGTTCTAACCTGTTGCCT (site CCGTCACCTAG)”, the “recombinant barcode read abundance (log10)” value came out at 0.332.

In the case of “TCGTCACCTTGGGTTCTAACCTGTTGCCT (site GCGTCACCTAG)”, the “recombinant barcode read abundance (log10)” value was 0.139.

“TCGTCACCTTGGGTTCTAACCTGTTGCCT (site TCGTCACCTAG)”: the “recombinant barcode read abundance (log10)” value amounted to 0.348.

For “TCGTCCTCTTGGGTTCTAACCTGTTGCCT (site TCGTCATCTAG)”, the “recombinant barcode read abundance (log10)” value was found to be 0.225.

On to “TCGTCCTCTTGGGTTCTAACCTGTTGCCT (site TCGTCCTCTAG)”, for which the “recombinant barcode read abundance (log10)” value is 0.323.

With “TCGTGCGCTTGGGTTCTAACCTGTTGCCT (site TCGTGCACTAG)”, the “recombinant barcode read abundance (log10)” value amounted to 0.177.

As to “TCGTGCGCTTGGGTTCTAACCTGTTGCCT (site TCGTGCCCTAG)”, the “recombinant barcode read abundance (log10)” value stood at 0.087.

Consider “TCGTGCGCTTGGGTTCTAACCTGTTGCCT (site TCGTGCGCTAG)”, for which the “recombinant barcode read abundance (log10)” value was determined as 0.0883.

In the case of “TCGTGCGCTTGGGTTCTAACCTGTTGCCT (site TCGTGCTCTAG)”, the “recombinant barcode read abundance (log10)” value came out at 0.

As to “TCGTGTTCTTGGGTTCTAACCTGTTGCTA (site CCTTGTTCTTA)”, the “recombinant barcode read abundance (log10)” value was found to be 0.0623.

As to “TCGTGTTCTTGGGTTCTAACCTGTTGCTA (site TCGTGTTCTTA)”, the “recombinant barcode read abundance (log10)” value stood at 0.0576.

For “TCGTTCGCTTGGGTTCTAACCTGTTGCCT (site TCCTTCACTAG)”, the “recombinant barcode read abundance (log10)” value came to 0.0905.

Turning to “TCGTTCGCTTGGGTTCTAACCTGTTGCCT (site TCGTTCGCTAG)”, the “recombinant barcode read abundance (log10)” value amounted to 0.21.

Consider “TCTAAGTCTTGGGTTCTAACCTGTTGCCC (site TCTAAGTCTAG)”, for which the “recombinant barcode read abundance (log10)” value was found to be 0.132.

“TCTAAGTCTTGGGTTCTAACCTGTTGCCC (site TCTAAGTCTCG)”: the “recombinant barcode read abundance (log10)” value is 0.0902.

With “TCTAAGTCTTGGGTTCTAACCTGTTGCCC (site TCTAAGTCTGG)”, the “recombinant barcode read abundance (log10)” value came out at 0.194.

Take “TCTAAGTCTTGGGTTCTAACCTGTTGCCC (site TCTAAGTCTTG)”: the “recombinant barcode read abundance (log10)” value turned out to be 0.00905.

For the sequence “TCTAAGTCTTGGGTTCTAACCTGTTGCCT (site TCTAAGTCTAG)”, the “recombinant barcode read abundance (log10)” value was 0.134.

In the case of “TCTAAGTCTTGGGTTCTAACCTGTTGCCT (site TCTAAGTCTCG)”, the “recombinant barcode read abundance (log10)” value stood at 0.132.

Turning to “TCTAAGTCTTGGGTTCTAACCTGTTGCCT (site TCTAAGTCTGG)”, the “recombinant barcode read abundance (log10)” value came to 0.172.

As for “TCTAAGTCTTGGGTTCTAACCTGTTGCCT (site TCTAAGTCTTG)”, the “recombinant barcode read abundance (log10)” value came out at 0.281.

As to “TCTAGATCTTGGGTTCTAACCTGTTGCCT (site TCTAGAACTAG)”, the “recombinant barcode read abundance (log10)” value is 0.0897.

Turning to “TCTAGATCTTGGGTTCTAACCTGTTGCCT (site TCTAGACCTAG)”, the “recombinant barcode read abundance (log10)” value amounted to 0.0764.

In the case of “TCTAGATCTTGGGTTCTAACCTGTTGCCT (site TCTAGAGCTAG)”, the “recombinant barcode read abundance (log10)” value was determined as 0.135.

Take “TCTAGATCTTGGGTTCTAACCTGTTGCCT (site TCTAGATCTAG)”: the “recombinant barcode read abundance (log10)” value is 0.0616.

In the case of “TCTATCCCTTGGGTTCTAACCTGTTGCCT (site TCAATCCCTAG)”, the “recombinant barcode read abundance (log10)” value was determined as 0.113.

On to “TCTATCCCTTGGGTTCTAACCTGTTGCCT (site TCCATCCCTAG)”, for which the “recombinant barcode read abundance (log10)” value stood at 0.105.

As for “TCTATCCCTTGGGTTCTAACCTGTTGCCT (site TCGATCCCTAG)”, the “recombinant barcode read abundance (log10)” value worked out at 0.0408.

With “TCTATCCCTTGGGTTCTAACCTGTTGCCT (site TCTATCCCTAG)”, the “recombinant barcode read abundance (log10)” value worked out at 0.203.

Take “TCTATGACTTGGGTTCTAACCTGTTGCCT (site TCTATGACTAG)”: the “recombinant barcode read abundance (log10)” value was 0.0099.

Turning to “TCTATGACTTGGGTTCTAACCTGTTGCCT (site TCTATGTCTAG)”, the “recombinant barcode read abundance (log10)” value came out at 0.187.

In the case of “TCTCAGCCTTGGGTTCTAACCTGTTGCCT (site TCTCAGCCTAG)”, the “recombinant barcode read abundance (log10)” value was found to be 0.453.

For the sequence “TCTCAGCCTTGGGTTCTAACCTGTTGCCT (site TCTCCGCCTAG)”, the “recombinant barcode read abundance (log10)” value was 0.0825.

As to “TCTCAGCCTTGGGTTCTAACCTGTTGCCT (site TCTCGGCCTAG)”, the “recombinant barcode read abundance (log10)” value worked out at 0.291.

“TCTCAGCCTTGGGTTCTAACCTGTTGCCT (site TCTCTGCCTAG)”: the “recombinant barcode read abundance (log10)” value turned out to be 0.0307.

In the case of “TCTGAAACTTGGGTTCTAACCTGTTGCCT (site TCCGAAACTAT)”, the “recombinant barcode read abundance (log10)” value worked out at 0.12.

“TCTGAAACTTGGGTTCTAACCTGTTGCCT (site TCTGAAACTAG)”: the “recombinant barcode read abundance (log10)” value stood at 0.413.

For “TCTGGGCCTTGGGTTCTAACCTGTTGCTT (site TCTGGGCCTAA)”, the “recombinant barcode read abundance (log10)” value came out at 0.0924.

In the case of “TCTGGGCCTTGGGTTCTAACCTGTTGCTT (site TCTGGGCCTTA)”, the “recombinant barcode read abundance (log10)” value came out at 0.525.
